The record followed here is ChEMBL document CHEMBL1140630, “Resisting degradation by human elastase: commonality of design features shared by 'canonical' plant and bacterial macrocyclic protease inhibitor scaffolds” (Bioorg Med Chem, 2007).

The term IC50 denotes the midpoint of a concentration-inhibition curve. A higher IC50 goes with weaker potency. In general, Ki refers to the dissociation constant of the complex between target and ligand, obtained from inhibition or displacement.

Bridge positions count the residues as written; N and C are the ends. Peptide text beside a SMILES is read from it.

In one assay the target is Pancreatic elastase (Sus scrofa, UniProt P08419+P00772). The assay is described as follows: Inhibition of porcine pancreatic elastase. The class given is protein assay.
The nature of assay [1]: Inhibition of trypsin.
Assay [2] can be described thus: Inhibition of subtilisin BPN.
Assay [3] in a line: Inhibition of chymotrypsin.

In turn, `C/C=C1\NC(=O)[C@H]2NC(=O)[C@@H](NC(=O)C(C)C)CCCNC(=O)Nc3cc(O)c(O)cc3C[C@@H](C(=O)N[C@@H](C(C)C)C(=O)O[C@H]2C)N(C)C(=O)[C@H](Cc2ccccc2)N2C(=O)[C@H](CC[C@H]2O)NC1=O` yielded an IC50 on Pancreatic elastase of 0.26 µM.

In assay [1], `CC(C)C[C@@H](NC(=O)[C@H](O)COS(=O)(=O)O)C(=O)N[C@@H]1C(=O)N[C@@H](CCCNC(=N)N)C(=O)N[C@H]2CC[C@@H](O)N(C2=O)[C@@H](CC(C)C)C(=O)N(C)[C@@H](Cc2ccc(O)cc2)C(=O)N[C@@H](C(C)C)C(=O)O[C@@H]1C` displayed a Ki of 0.009 µM.

On to `CSCC[C@@H]1NC(=O)[C@@H](NC(=O)[C@H](C)NC(=O)[C@@H](N)Cc2ccccc2)[C@@H](C)OC(=O)C[C@@H]2NC(=O)[C@H](COC(=O)C[C@@H](C(=O)N[C@@H](CCC(=O)O)C(=O)O)NC(=O)[C@H](CO)NC2=O)NC(=O)[C@@H]2CCCN2C(=O)[C@H](Cc2ccc(O)cc2)NC(=O)[C@H](CCCNC(=N)N)NC1=O` [MARINOSTATIN] (H-FATMRYPSDSDE-OH; ester 3-9, 8-11), for which the Ki in assay [2] was 0.0015 µM; in assay [3], 0.3 µM.

At Pancreatic elastase, `CCCC(=O)N[C@@H](C)C(=O)N[C@H](C(=O)N[C@@H]1C(=O)N[C@@H](CC(C)C)C(=O)N[C@@H]2CC[C@H](O)N(C2=O)[C@@H](C(C)O)C(=O)N[C@@H](Cc2ccc(O)c(Cl)c2)C(=O)N[C@@H](C(C)C)C(=O)O[C@H]1C)[C@@H](C)O` (stereo not given in full) [SCYPTOLIN A] registered an IC50 of 0.16 µM.
